Reference: patent US7714023B2, “Treatment or prophylaxis of migraine or headache disorders using citalopram, escitalopram or citalopram metabolites” (priority 2004, dated 2010)
Several values for one entry are separate records, joined by “and”; a condition that tells them apart may be missing. Identical values can stand only once. Like-named read-outs stand apart in the source and are kept apart here.

Assays:
[1] = test system: DA uptake; assay: DA uptake into rat corpora striatum synaptosomes; format: biochemical
[2] = test system: NE uptake; assay: NE uptake, rat hypothalamus synaptosomes; format: biochemical
[3] = biological target: T1, NE transporter (Rattus norvegicus, UniProt Q63380); assay: NE transporter binding, rat cerebral cortex, [3H]nisoxetine; settings: Table 2, ten concentrations; read-out: Transporter and Muscarinic Receptor Binding IC50 NE
T1 construct: Rat cerebral cortex; from tissue; host or cells: rat cerebral cortex
T1 sequence (Q63380 1-617): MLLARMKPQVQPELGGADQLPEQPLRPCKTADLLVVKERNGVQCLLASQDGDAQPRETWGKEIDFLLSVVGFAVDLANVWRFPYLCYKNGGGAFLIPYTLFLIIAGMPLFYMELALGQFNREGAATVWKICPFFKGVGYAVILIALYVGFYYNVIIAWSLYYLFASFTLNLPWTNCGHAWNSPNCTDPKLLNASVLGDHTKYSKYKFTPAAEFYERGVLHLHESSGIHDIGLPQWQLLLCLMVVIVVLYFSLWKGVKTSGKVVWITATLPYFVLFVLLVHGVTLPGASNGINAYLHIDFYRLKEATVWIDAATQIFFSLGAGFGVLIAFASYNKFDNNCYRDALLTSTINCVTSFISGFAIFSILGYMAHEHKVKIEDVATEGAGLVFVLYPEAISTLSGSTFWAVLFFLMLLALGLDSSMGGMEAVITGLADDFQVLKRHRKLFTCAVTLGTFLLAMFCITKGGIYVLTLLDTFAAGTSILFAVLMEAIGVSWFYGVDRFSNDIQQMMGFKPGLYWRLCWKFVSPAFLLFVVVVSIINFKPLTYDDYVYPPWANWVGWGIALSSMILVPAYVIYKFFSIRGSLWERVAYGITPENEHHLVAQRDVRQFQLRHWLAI

[4] = test system: cytochrome P450 enzymes (P450 4A, P4502C19, P450 2D6, P4501A2, P450 2C9, P450 2E1); settings: in vitro; not by more than the stated degree; cited from earlier work
[5] = test system: receptors for acetylcholine, histamine, norepinephrine, dopamine; monoamine oxidase; dopamine and norepinephrine reuptake sites; settings: Willets, 1999; cited from earlier work
[6] = biological target: T2, DA transporter (h) (Homo sapiens, UniProt Q01959); assay: DA transporter (h) binding, [3H]GBR12935
T2 construct: expressed in transfected cells; host or cells: CHO cells
T2 sequence (Q01959 whole entry): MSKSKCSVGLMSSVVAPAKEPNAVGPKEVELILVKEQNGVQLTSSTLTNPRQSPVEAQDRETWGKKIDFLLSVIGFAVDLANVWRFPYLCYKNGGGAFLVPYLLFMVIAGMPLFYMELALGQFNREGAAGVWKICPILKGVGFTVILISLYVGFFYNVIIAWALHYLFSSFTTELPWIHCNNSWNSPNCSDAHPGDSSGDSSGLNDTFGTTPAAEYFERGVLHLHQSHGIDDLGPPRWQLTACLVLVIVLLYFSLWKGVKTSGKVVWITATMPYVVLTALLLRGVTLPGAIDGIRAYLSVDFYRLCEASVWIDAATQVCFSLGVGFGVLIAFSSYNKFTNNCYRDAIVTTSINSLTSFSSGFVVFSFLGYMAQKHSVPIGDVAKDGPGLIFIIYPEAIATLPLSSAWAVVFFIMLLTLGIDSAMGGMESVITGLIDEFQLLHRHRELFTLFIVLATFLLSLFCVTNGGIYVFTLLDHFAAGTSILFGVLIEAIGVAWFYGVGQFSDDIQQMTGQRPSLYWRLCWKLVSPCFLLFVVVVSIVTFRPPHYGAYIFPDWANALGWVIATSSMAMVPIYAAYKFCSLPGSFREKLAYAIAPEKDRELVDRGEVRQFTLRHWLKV

[7] = biological target: T3, NE transporter (h) (Homo sapiens, UniProt P23975); assay: NE transporter (h) binding, [3H]nisoxetine
T3 construct: expressed in transfected cells; host or cells: MDCK cells
T3 sequence (P23975 whole entry): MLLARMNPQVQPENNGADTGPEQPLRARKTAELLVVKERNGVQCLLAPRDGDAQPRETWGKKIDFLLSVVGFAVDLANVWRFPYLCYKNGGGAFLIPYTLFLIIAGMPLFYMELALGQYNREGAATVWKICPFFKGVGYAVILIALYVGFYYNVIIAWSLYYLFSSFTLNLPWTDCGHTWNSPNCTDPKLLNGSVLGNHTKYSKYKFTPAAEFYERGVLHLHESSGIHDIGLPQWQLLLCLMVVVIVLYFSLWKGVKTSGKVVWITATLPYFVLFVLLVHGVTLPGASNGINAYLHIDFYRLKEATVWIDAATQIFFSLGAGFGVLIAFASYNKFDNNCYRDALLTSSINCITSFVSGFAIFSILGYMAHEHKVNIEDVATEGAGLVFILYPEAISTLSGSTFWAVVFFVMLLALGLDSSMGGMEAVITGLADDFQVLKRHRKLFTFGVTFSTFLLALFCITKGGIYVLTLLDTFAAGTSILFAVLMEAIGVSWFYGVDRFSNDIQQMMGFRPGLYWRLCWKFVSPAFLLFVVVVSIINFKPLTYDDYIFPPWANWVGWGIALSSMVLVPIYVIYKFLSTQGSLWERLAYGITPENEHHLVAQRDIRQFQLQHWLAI

[8] = test system: 5-HT uptake; assay: 5-HT uptake into rat brain synaptosomes; format: biochemical
[9] = biological target: T4, 5-HT transporter (h) (Homo sapiens, UniProt P31645); format: binding
T4 construct: expressed in transfected cells; host or cells: HEK 293 cells
T4 sequence (P31645 whole entry): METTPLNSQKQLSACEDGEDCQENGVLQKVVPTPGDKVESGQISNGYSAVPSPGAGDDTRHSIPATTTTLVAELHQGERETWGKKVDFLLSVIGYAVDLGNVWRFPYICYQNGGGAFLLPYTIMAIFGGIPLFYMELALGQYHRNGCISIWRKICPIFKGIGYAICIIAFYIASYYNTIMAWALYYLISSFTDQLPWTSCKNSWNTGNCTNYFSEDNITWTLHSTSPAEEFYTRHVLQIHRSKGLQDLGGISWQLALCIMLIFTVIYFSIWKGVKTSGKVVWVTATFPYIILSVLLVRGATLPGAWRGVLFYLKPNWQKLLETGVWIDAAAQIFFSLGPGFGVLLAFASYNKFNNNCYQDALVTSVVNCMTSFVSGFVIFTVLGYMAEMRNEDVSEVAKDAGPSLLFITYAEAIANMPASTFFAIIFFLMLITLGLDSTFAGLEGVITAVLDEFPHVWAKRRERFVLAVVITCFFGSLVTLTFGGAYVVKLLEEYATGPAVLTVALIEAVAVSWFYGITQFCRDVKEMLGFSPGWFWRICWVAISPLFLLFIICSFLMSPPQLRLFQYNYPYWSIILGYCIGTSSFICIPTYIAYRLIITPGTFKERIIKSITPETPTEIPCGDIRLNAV

[10] = biological target: T5, 5-HT transporter (Rattus norvegicus, UniProt P31652); assay: 5-HT transporter binding, rat cerebral cortex, [3H]paroxetine; settings: Table 2, ten concentrations; read-out: Transporter and Muscarinic Receptor Binding IC50 5-HT rat
T5 construct: Rat cerebral cortex; from tissue; host or cells: rat cerebral cortex
T5 sequence (P31652 whole entry): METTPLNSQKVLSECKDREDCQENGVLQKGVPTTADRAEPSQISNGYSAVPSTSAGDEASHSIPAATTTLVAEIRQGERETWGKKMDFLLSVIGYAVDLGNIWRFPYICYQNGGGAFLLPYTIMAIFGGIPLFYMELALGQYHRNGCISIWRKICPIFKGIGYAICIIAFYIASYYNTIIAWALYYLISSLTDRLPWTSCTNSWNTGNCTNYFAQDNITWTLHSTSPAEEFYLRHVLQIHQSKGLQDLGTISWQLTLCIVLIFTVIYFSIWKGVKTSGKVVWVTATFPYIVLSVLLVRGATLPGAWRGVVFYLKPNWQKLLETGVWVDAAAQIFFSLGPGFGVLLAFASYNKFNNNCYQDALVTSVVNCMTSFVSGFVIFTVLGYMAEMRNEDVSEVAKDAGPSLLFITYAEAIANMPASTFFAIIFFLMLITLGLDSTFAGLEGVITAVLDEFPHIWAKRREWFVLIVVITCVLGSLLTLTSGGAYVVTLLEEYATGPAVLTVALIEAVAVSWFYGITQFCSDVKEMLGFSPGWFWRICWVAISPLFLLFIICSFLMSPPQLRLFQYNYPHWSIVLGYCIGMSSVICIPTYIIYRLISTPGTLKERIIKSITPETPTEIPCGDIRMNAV

[11] = biological target: T6, DA transporter (Rattus norvegicus, UniProt P23977); assay: DA transporter binding, rat striatum, [3H]GBR12935; settings: Table 2, ten concentrations; read-out: Transporter and Muscarinic Receptor Binding IC50 DA
T6 construct: Rat striatum; from tissue; host or cells: rat striatum
T6 sequence (P23977 whole entry): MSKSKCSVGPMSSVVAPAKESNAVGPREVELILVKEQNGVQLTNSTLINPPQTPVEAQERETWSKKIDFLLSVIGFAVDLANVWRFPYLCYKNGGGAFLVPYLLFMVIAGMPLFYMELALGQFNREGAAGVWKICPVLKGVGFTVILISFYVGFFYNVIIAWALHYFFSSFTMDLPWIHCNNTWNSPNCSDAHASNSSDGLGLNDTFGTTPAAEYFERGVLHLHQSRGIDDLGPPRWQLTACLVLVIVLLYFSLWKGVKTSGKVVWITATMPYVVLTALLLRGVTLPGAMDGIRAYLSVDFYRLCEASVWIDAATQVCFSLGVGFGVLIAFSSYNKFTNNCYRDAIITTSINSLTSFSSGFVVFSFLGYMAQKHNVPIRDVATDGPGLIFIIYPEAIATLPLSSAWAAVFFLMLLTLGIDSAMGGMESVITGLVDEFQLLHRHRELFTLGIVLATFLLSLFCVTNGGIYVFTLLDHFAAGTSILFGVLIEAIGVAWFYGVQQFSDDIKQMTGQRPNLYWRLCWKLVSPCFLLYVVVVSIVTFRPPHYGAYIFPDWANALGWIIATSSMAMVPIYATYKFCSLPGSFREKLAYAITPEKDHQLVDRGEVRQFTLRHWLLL

[12] = Table 3, rat brain synaptosomes, read-out: Monoamine Uptake IC50 DA
[13] = Table 3, rat brain synaptosomes, read-out: Monoamine Uptake IC50 NE
[14] = Table 1, rat brain synaptosomes, read-out: Functional Uptake IC50 DA
[15] = Table 1, rat brain synaptosomes, read-out: Functional Uptake IC50 NE
[16] = Table 1, racemic forms, duplicate, read-out: Transporter Binding IC50 DA
[17] = Table 1, racemic forms, duplicate, read-out: Transporter Binding IC50 NE
[18] = Table 1, rat brain synaptosomes, read-out: Functional Uptake IC50 5-HT
[19] = Table 3, human recombinant CHO cells, [3H]-GBR 12935, read-out: Human Transporter Binding IC50 DA
[20] = Table 3, human recombinant MDCK cells, [3H]-nisoxetine, read-out: Human Transporter Binding IC50 NE
[21] = Table 3, rat brain synaptosomes, read-out: Monoamine Uptake IC50 5-HT
[22] = Table 2, ten concentrations, read-out: Transporter and Muscarinic Receptor Binding IC50 5-HT human

Row | SMILES | IC50 [1, 12] [µM] | IC50 [2, 13] [µM] | IC50 [3] [µM] | IC50 [1, 14] [µM] | IC50 [2, 15] [µM] | IC50 [6, 16] | IC50 [8, 18] [µM] | IC50 [6, 19] [µM] | IC50 [7, 20] [µM] | IC50 [8, 21] [µM] | IC50 [10] [µM] | IC50 [11] [µM] | other results
1 | CN(C)CCCC1(c2ccc(F)cc2)OCc2cc(C#N)ccc21 (racemic) [Citalopram HBr (racemic), reference compound] | 13 | 4.9 | 4.74 | – | – | – | – | – | – | – | – | – | –
2 | CN(C)CCCC1(c2ccc(F)cc2)OCc2cc(C#N)ccc21 (racemic) [Racemic citalopram, (±)-1-(3-dimethylaminopropyl)-1-(4-fluorophenyl)-1,3-dihydroisobenzofuran-5-carbonitrile, reference compound] | – | – | – | 17 | 3.6 | – | – | – | – | – | – | – | inhibition of the activity of cytochrome P450 enzymes [4]: mild degree; affinity for receptors for various neurotransmitters, enzymes and other reuptake sites [5]: negligible affinity
3 | CNCCCC1(c2ccc(F)cc2)OCc2cc(C#N)ccc21 (racemic) [Racemic desmethylcitalopram] | – | – | – | 38 | 1.2 | 3.73 µM | 0.013 | – | – | – | – | – | IC50 [7, 17]: 15.5 µM; inhibition of the activity of cytochrome P450 enzymes [4]: mild degree
4 | N#Cc1ccc2c(c1)COC2(CCCN)c1ccc(F)cc1 (racemic) [Racemic didesmethylcitalopram, 3-5-Cyano-1-(4-fluorophenyl)-1,3-dihydro-isobenzofuran-1-yl-propyl amine] | – | – | – | 8.9 | 1.6 | 13.2 µM | 0.038 | – | – | – | – | – | IC50 ([9]; Table 1, racemic forms, duplicate, read-out: Transporter Binding IC50 5-HT): 0.085 µM; IC50 [7, 17]: 21.2 µM
5 | CNCCC[C@]1(c2ccc(F)cc2)OCc2cc(C#N)ccc21 [(R)(−)-Desmethylcitalopram] | 9.4 | 1.7 | 0.92 | – | – | – | – | 37.6 | 0.815 | 0.11 | 0.011 | 58 | –
6 | N#Cc1ccc2c(c1)CO[C@]2(CCCN)c1ccc(F)cc1 [(R)(−)-Didesmethylcitalopram] | 27 | 1.3 | 3.62 | – | – | – | – | 38.9 | 5.52 | 0.13 | 0.027 | 14.1 | IC50 [9, 22]: 0.014 µM
7 | CNCCC[C@@]1(c2ccc(F)cc2)OCc2cc(C#N)ccc21 [(S)(+)-Desmethylcitalopram] | 7.6 | 4.1 | 11.5 | – | – | – | – | 27.7 | 10.3 | 0.0058 | 0.0013 | 79.5 | –
8 | N#Cc1ccc2c(c1)CO[C@@]2(CCCN)c1ccc(F)cc1 [(S)(+)-Didesmethylcitalopram] | 11 | 3.3 | 20.1 | – | – | – | – | 54.7 | 24.2 | 0.18 | 0.019 | 71.1 | fold higher affinity than its antipode, human 5-HT transporter [9]: 16 fold; IC50 [9, 22]: 0.219 µM
10 | CNCCCC1c2ccccc2C=Cc2ccccc21 [Protriptyline, reference compound] | – | 0.0023 | – | 0.001 | – | 0.0067 µM and 0.015 µM | – | – | – | – | – | – | –
